Results published in the OPERA property sets (Mansouri et al. 2018).

SMILES | logP
Cc1ccc(Br)cc1 | 3.42
COc1ccc(F)cc1 | 2.26
COc1cccc(Br)c1 | 3.03
Cc1cccc(F)c1 | 2.75
Clc1ccc(Br)cc1 | 3.54
Fc1ccc(Cl)cc1 | 2.78
CC(=O)c1cccc(Br)c1 | 2.47
Cc1ccc(F)cc1 | 2.58
CC(=O)c1cccc(N)c1 | 0.83
Fc1ccc(Br)cc1 | 3.08
Cc1cccc(Br)c1 | 3.41
COc1cccc(F)c1 | 2.36
Fc1cccc(F)c1 | 2.21
COc1ccc(OC)cc1 | 2.04
Fc1cccc(Br)c1 | 2.92
CC(=O)c1cccc(C)c1 | 2.15
Fc1ccc(F)cc1 | 2.13
Clc1cccc(Br)c1 | 3.7
COc1ccc(Br)cc1 | 3.05
